Test results reported in US12233057B2, “Small molecules for inhibiting chemokine activity and/or cancer cells growth” (AlonBio Ltd., priority 2015, dated 2025).
Values after ≈ are worked out from the molar mass of the structure shown.

How the values were obtained:
SDF-1 = assay: Migration assay: Jurkat cells towards SDF-1 (Transwell); assay type: cell-based, human; conditions: 10 μg/ml
Method: 600 μl of RPMI medium was added to the lower chambers of Transwell® transmigration plates, supplemented with 2 μg/ml of MIP3a, 100 ng/ml of SDF-1 or 10 ng/ml of MCP-1. The tested small molecule was added to the lower chambers at the indicated concentration, except in control samples. The MIP3a, SDF-1 or MCP-1 was incubated with the small molecule for 30 minutes at room temperature before the initiation of the migration assay. Following 30 minutes of incubation 2×10^5 immune cells were added to the upper chambers of the transmigration plates in a total volume of 100 μl. Cells which migrated within 3 hours to the bottom chamber of the Transwell® plates were counted using a FACScalibur™ flow cytometer.
To evaluate migration towards SDF-1, Jurkat cells were re-suspended in RPMI medium containing 1% fetal calf serum (FCS).

MAP4K1 (HPK1) = MAP4K1 (HPK1) (Homo sapiens, UniProt Q92918); assay: LanthaScreen europium kinase binding assay; conditions: BKT300 at 78% purity
Method: (§1) In order to further characterize the effect of BKT300 on cell signaling, kinase profiling of BKT300 (at 78% purity) was performed (by the Life Technologies SelectScreen® Biochemical Profiling Lab) using a LanthaScreen® europium kinase binding assay to screen 440 kinases.
(§2) The principle of the LanthaScreen® assay is depicted in FIG. 13. Binding of an Alexa Fluor® conjugate or “tracer” to a kinase is detected by addition of a europium (Eu)-labeled anti-tag antibody. Binding of the tracer and antibody to a kinase results in a high degree of FRET, whereas displacement of the tracer with a kinase inhibitor results in a loss of FRET. The kinase tracers are based on ATP-competitive kinase inhibitors, making them suitable for detection of any compounds that bind to the ATP site. Inhibitors that bind the ATP site include both Type I kinase inhibitors, which bind solely to the ATP site, and Type II inhibitors (e.g., imatinib, sorafenib, BIRB-796), which bind to both the ATP site and a second site often referred to as the allosteric site.

CDK1/cyclin A2 = CDK1/cyclin A2 (Homo sapiens, UniProt P06493); assay: LanthaScreen europium kinase binding assay; conditions: BKT300 at 78% purity
Method: as §1, §2

EPHA8 = EPHA8 (Homo sapiens, UniProt P29322); assay: LanthaScreen europium kinase binding assay; conditions: BKT300 at 78% purity
Method: as §1, §2

DAPK1 = DAPK1 (Homo sapiens, UniProt P53355); assay: LanthaScreen europium kinase binding assay; conditions: BKT300 at 78% purity
Method: as §1, §2

SRC N1 = SRC N1 (Homo sapiens, UniProt P12931); assay: LanthaScreen europium kinase binding assay; conditions: BKT300 at 78% purity
Method: as §1, §2

STK38 (NDR) = STK38 (NDR) (Homo sapiens, UniProt Q15208); assay: LanthaScreen europium kinase binding assay; conditions: BKT300 at 78% purity
Method: as §1, §2

KIT D820E = KIT D820E (Homo sapiens, UniProt P10721, D820E); assay: LanthaScreen europium kinase binding assay; conditions: BKT300 at 78% purity
Method: as §1, §2

PIK3CD = PIK3CD (Homo sapiens, UniProt O00329); assay: LanthaScreen europium kinase binding assay; conditions: BKT300 at 78% purity
Method: as §1, §2

SGK2 = SGK2 (Homo sapiens, UniProt Q9HBY8); assay: LanthaScreen europium kinase binding assay; conditions: BKT300 at 78% purity
Method: as §1, §2

MAP4K4 (HGK) = MAP4K4 (HGK) (Homo sapiens, UniProt O95819); assay: LanthaScreen europium kinase binding assay; conditions: BKT300 at 78% purity
Method: as §1, §2

MYLK (MLCK) = MYLK (MLCK) (Homo sapiens, UniProt Q15746); assay: LanthaScreen europium kinase binding assay; conditions: BKT300 at 78% purity
Method: as §1, §2

MAP4K2 (GCK) = MAP4K2 (GCK) (Homo sapiens, UniProt Q12851); assay: LanthaScreen europium kinase binding assay; conditions: BKT300 at 78% purity
Method: as §1, §2

PIK3CA = PIK3CA (Homo sapiens, UniProt P42336); assay: LanthaScreen europium kinase binding assay; conditions: BKT300 at 78% purity
Method: as §1, §2

ICK = ICK (Homo sapiens, UniProt Q9UPZ9); assay: LanthaScreen europium kinase binding assay; conditions: BKT300 at 78% purity
Method: as §1, §2

TTK = TTK (Homo sapiens, UniProt P33981); assay: LanthaScreen europium kinase binding assay; conditions: BKT300 at 78% purity
Method: as §1, §2

STK38L (NDR2) = STK38L (NDR2) (Homo sapiens, UniProt Q9Y2H1); assay: LanthaScreen europium kinase binding assay; conditions: BKT300 at 78% purity
Method: as §1, §2

NUAK2 = NUAK2 (Homo sapiens, UniProt Q9H093); assay: LanthaScreen europium kinase binding assay; conditions: BKT300 at 78% purity
Method: as §1, §2

DAPK2 = DAPK2 (Homo sapiens, UniProt Q9UIK4); assay: LanthaScreen europium kinase binding assay; conditions: BKT300 at 78% purity
Method: as §1, §2

DYRK2 = DYRK2 (Homo sapiens, UniProt Q92630); assay: LanthaScreen europium kinase binding assay; conditions: BKT300 at 78% purity
Method: as §1, §2

TGFBR2 = TGFBR2 (Homo sapiens, UniProt P37173); assay: LanthaScreen europium kinase binding assay; conditions: BKT300 at 78% purity
Method: as §1, §2

PAK7 (KIAA1264) = PAK7 (KIAA1264) (Homo sapiens, UniProt Q9P286); assay: LanthaScreen europium kinase binding assay; conditions: BKT300 at 78% purity
Method: as §1, §2

[1] = system: RPMI human multiple myeloma cells; assay: Cancer cell viability assay, propidium iodide staining (FACS); assay type: cell-based; conditions: BKT300 at 78% purity, 24 hours
Method: (§3) The cancer cells were incubated in cell medium with 1% fetal calf serum (FCS) at a concentration of 2×10^5 cells/well at a final volume of 250 μl in 96-well plate. The tested small molecule was added to the cells at the indicated concentrations. The cells were incubated for 24 hours and the number of dead and viable cells was then evaluated by fluorescence-activated cell sorting (FACS), using propidium iodide (PI) staining. The IC50 of the small molecule-induced cell death was determined using GraphPad Prism software.
(§4) The in vitro effect of BKT300 (at 78% purity) on cancer cell viability was further evaluated using a variety of additional cancer cell lines, using procedures as described hereinabove with respect to MV4-11 cells.

[2] = system: H460 human large cell lung cancer cells; assay: as above; assay type: cell-based; conditions: BKT300 at 78% purity, 10 μg/ml
Method: as §3, §4

[3] = system: H345 human small cell lung cancer cells; assay: as above; assay type: cell-based; conditions: BKT300 at 78% purity, 8.5 μg/ml
Method: as §3, §4

[4] = system: Bjab human lymphoma cells; assay: as above; assay type: cell-based; conditions: BKT300 at 78% purity, 8.5 μg/ml
Method: as §3, §4

[5] = system: Jurkat human acute lymphoblastic leukemia cells; assay: as above; assay type: cell-based; conditions: BKT300 at 78% purity, 24 hours
Method: as §3, §4

[6] = system: Raji human lymphoma cells; assay: as above; assay type: cell-based; conditions: BKT300 at 78% purity
Method: as §3, §4

SRC N1, sequence (P12931 1-542 isoform P12931-2): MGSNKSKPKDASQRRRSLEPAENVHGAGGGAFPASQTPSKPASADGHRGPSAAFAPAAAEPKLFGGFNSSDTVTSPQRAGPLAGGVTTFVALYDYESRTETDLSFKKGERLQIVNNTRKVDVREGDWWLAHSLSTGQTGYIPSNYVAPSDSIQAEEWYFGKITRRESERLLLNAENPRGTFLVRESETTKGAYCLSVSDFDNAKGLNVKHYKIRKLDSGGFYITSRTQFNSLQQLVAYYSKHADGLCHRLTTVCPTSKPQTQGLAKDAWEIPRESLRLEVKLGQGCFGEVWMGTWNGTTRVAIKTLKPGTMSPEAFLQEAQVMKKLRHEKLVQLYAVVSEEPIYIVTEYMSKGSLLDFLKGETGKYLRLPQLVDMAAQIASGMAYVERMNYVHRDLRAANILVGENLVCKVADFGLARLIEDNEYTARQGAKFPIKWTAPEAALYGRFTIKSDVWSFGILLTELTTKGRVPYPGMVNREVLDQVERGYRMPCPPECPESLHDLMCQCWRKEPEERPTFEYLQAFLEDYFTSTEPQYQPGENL
KIT D820E, sequence (P10721 26-976 D820E): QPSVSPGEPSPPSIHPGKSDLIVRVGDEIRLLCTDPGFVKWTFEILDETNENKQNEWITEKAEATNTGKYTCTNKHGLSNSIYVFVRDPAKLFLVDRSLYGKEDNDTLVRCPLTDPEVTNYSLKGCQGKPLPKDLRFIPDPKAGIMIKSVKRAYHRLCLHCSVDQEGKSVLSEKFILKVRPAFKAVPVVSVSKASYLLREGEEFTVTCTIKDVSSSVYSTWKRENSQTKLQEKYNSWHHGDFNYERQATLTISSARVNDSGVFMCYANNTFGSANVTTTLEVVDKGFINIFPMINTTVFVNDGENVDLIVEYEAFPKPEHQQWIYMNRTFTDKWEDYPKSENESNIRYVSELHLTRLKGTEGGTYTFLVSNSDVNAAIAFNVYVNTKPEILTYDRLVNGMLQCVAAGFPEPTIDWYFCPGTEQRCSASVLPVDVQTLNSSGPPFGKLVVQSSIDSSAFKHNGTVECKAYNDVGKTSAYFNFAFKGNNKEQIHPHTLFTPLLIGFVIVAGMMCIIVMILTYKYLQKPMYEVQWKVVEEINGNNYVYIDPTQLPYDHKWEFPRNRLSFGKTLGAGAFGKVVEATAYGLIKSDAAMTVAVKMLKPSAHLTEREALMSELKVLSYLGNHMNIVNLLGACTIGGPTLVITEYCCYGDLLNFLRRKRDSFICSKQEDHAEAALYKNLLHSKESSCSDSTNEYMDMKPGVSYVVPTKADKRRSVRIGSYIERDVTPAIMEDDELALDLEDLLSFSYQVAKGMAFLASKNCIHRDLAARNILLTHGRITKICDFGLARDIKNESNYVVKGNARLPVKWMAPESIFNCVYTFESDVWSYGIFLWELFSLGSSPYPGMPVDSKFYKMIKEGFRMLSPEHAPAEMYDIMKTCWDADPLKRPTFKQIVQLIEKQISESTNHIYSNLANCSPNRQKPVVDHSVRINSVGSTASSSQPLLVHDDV
MAP4K1 (HPK1), sequence (Q92918 whole entry): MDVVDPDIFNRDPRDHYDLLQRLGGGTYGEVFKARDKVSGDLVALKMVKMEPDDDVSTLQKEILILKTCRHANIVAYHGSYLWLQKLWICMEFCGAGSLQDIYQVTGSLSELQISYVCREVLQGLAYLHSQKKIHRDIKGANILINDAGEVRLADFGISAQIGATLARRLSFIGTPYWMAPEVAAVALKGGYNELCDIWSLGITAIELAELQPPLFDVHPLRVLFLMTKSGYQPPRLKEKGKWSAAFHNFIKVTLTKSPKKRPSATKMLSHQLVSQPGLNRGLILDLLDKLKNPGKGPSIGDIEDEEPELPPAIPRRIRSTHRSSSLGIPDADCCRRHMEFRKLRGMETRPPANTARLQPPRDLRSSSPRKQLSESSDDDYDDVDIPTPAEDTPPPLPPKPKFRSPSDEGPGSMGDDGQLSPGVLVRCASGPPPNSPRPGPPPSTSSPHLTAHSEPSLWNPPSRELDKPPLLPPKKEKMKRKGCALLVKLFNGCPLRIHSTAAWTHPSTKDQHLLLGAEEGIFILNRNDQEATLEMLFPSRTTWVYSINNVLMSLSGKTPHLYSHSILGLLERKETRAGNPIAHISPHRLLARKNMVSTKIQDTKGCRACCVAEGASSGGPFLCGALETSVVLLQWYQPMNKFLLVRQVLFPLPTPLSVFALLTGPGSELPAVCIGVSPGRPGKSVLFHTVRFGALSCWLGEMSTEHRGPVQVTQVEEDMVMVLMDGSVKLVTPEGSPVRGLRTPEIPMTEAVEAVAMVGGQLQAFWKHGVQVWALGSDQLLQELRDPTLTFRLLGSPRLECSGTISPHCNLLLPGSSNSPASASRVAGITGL
EPHA8, sequence (P29322 28-1005): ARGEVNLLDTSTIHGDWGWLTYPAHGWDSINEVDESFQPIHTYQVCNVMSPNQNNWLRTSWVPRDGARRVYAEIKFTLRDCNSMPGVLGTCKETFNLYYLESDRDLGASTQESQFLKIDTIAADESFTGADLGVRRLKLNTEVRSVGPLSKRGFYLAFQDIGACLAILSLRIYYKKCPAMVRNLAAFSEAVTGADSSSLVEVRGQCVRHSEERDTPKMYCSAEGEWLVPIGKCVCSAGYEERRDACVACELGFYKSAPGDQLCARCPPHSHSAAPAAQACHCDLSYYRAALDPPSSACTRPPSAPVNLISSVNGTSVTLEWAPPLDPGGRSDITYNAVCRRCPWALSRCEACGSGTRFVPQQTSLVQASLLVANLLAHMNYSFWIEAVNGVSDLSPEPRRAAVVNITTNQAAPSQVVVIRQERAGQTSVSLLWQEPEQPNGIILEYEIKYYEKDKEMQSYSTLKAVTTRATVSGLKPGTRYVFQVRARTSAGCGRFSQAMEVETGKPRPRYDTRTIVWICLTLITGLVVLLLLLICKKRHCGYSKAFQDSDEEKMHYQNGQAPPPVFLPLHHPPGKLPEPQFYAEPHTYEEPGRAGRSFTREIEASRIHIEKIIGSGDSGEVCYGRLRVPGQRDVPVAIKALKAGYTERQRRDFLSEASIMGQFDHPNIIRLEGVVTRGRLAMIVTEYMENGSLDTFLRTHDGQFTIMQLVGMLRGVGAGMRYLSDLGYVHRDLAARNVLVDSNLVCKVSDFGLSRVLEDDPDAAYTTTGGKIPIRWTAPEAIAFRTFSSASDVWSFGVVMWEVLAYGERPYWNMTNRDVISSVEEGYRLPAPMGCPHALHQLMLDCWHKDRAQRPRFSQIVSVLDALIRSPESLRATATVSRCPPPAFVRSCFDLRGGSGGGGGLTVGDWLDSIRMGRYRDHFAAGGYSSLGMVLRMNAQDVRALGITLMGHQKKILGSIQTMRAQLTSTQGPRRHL
DAPK2, sequence (Q9UIK4 whole entry): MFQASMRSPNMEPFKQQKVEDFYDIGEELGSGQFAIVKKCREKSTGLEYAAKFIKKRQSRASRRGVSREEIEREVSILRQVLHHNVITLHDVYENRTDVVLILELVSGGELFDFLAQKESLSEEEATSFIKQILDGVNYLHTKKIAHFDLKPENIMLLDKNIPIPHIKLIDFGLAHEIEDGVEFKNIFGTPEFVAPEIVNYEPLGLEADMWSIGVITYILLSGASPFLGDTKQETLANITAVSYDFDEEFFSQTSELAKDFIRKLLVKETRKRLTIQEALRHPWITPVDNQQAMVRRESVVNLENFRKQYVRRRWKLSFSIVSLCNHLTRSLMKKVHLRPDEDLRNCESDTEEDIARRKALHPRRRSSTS
STK38 (NDR), sequence (Q15208 whole entry): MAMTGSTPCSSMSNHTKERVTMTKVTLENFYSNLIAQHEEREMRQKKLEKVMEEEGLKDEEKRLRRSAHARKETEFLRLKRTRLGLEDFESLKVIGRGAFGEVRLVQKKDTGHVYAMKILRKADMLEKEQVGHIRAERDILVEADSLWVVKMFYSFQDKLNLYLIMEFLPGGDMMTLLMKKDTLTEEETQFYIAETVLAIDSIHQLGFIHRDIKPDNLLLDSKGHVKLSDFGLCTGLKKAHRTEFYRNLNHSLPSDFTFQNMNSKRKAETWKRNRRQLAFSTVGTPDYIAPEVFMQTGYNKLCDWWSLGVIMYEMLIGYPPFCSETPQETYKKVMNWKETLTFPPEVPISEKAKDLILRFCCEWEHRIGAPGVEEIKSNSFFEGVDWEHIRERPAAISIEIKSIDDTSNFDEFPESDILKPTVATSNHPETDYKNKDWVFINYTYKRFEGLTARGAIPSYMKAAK
MAP4K2 (GCK), sequence (Q12851 whole entry): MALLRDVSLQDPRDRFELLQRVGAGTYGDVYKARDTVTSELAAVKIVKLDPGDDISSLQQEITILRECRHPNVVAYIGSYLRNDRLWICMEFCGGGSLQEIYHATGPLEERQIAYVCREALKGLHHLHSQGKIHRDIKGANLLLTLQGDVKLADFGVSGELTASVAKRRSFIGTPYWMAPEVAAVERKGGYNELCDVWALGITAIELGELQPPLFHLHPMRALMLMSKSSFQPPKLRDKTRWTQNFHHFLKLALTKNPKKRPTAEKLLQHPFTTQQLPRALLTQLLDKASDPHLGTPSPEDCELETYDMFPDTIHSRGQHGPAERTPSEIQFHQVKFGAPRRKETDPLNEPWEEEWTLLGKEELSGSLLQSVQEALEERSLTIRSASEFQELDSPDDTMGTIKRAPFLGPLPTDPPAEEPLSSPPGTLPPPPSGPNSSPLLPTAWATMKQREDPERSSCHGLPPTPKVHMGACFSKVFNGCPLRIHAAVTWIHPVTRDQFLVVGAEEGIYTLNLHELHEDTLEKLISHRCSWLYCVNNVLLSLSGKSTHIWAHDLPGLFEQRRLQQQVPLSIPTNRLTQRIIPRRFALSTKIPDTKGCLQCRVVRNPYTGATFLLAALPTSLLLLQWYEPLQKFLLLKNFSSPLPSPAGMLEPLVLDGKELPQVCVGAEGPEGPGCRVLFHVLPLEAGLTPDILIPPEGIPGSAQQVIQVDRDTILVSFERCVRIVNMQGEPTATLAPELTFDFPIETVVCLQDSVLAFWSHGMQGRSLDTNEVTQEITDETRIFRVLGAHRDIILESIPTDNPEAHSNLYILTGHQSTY

% Inhibition (MAP4K1 (HPK1)): 45% | % Inhibition (CDK1/cyclin A2): 45% | % Inhibition (EPHA8): 50% | % Inhibition (DAPK1): 43% | % Inhibition (SRC N1): 41% | % Inhibition (STK38 (NDR)): 41% | % Inhibition (KIT D820E): 42% | % Inhibition (PIK3CD): 77% | % Inhibition (SGK2): 43% | % Inhibition (MAP4K4 (HGK)): 40% | % Inhibition (MYLK (MLCK)): 63% | % Inhibition (MAP4K2 (GCK)): 48% | % Inhibition (PIK3CA): 64% | % Inhibition (ICK): 41% | % Inhibition (TTK): 52% | % Inhibition (STK38L (NDR2)): 45% | % Inhibition (NUAK2): 89% | % Inhibition (DAPK2): 65% | % Inhibition (DYRK2): 62% | % Inhibition (TGFBR2): 43% | % Inhibition (PAK7 (KIAA1264)): 40%
Structure (SMILES): CCCCCc1cc2cc(O)cc(Oc3c(O)cc(O)cc3CCCCC)c2c(=O)o1 [BKT300]
Inhibition of migration of Jurkat cells towards SDF-1 (SDF-1; BKT300 at 78% purity): significantly inhibited | Inhibition of migration of Jurkat cells towards SDF-1 (SDF-1; BKT300 at 98% purity): significantly inhibited | Concentration at which cell death of RPMI cells is induced (as low as; lowest tested) [1]: ≤ 2 µg/mL | Cell death of H460 cells [2]: about 80% | Cell death of H345 cells [3]: over 90% | Cell death of Bjab cells [4]: about 30% | Concentration at which cell death of Jurkat cells is induced (as low as; lowest tested) [5]: ≤ 2 µg/mL | IC50 ([5]; Homo sapiens, Jurkat, read-out: IC50 for induced death of Jurkat cells): 3.5 µg/mL (≈ 8.21 µM) | Cell death of Raji cells ([6]; 4.25 μg/ml): slight cell death | Cell death of Raji cells ([6]; 8.5 μg/ml): about 30%
